Here are results for six compounds from US9155740B2, “Compositions and methods for treatment and prevention of hyperuricemia related health consequences” (priority 2004, dated 2015).

In one test the test system is Male Sprague-Dawley rats. Nature of the test: Oxonic acid-induced hyperuricemia in rats, serum uric acid, NOx and blood pressure. It counts as in vivo, rat. On the procedure: Male Sprague-Dawley rats were housed in standard conditions and fed normal diets. Hyperuricemia was induced with an uricase inhibitor, oxonic acid (OA; 750 mg/kg/day), by gavage, with control rats receiving vehicle. Allopurinol (AP) was used to block hyperuricemia by placing AP in the drinking water (150 mg/L). Rats were divided into four groups: (1) Control, (2) AP only, (3) OA only, and (4) OA+AP. Systolic blood pressure was measured using a tail-cuff sphygmomanometer. The amount of drinking water consumed and changes in body weight were noted. Rats were sacrificed at one and seven days. Serum was analyzed for uric acid concentration and nitrites/nitrates (NOx) by chemiluminescence method. (Prabhakar SS: Inhibition of mesangial iNOS by reduced extracellular pH is associated with uncoupling of NADPH oxidation. Kidney Int 61:2015-2024, 2002). Statistical analysis between subgroups was performed using ANOVA.

In test [1] the test system is fructose-fed rats. Kind of test: Treatment of fructose-induced hyperuricemia with allopurinol. It counts as in vivo, rat. Conditions: for body weight: treatment study, p=NS. The text has this:
Treatment of fructose-induced hyperuricemia with allopurinol: Male Sprague-Dawley rats (150-200 g) were housed in standard conditions and fed control (n=7) or 60% fructose diet (Harlan, Madison, Wis., n=14) for 10 weeks. “Control diet” contains 46% carbohydrate, which is mainly composed of starch whereas the fructose diet contained 60% fructose as the carbohydrate. The caloric content of these diets are 3.1 kcal/g and 3.6 kcal/g, respectively. At 4 weeks, blood sample were obtained at 11 am in the morning after 4 h fasting. Half of the fructose-fed rats were administered allopurinol (AP, 150 mg/L in the drinking water) (Sigma, St. Louis, Mo.) for an additional 6 weeks to lower serum uric acid. Fresh drinking water containing allopurinol was replaced every 2 days. Rats were divided into 3 groups: Control; Fructose (Fr); and Fr+AP. At 10 weeks an oral glucose tolerance test was performed, in which rats were fasted overnight (16 hours), and then administered 1.5 g/kg OGTT (50% glucose solution) by gavage. Blood was sampled at 0, 30, 60, 120 min for blood glucose and serum insulin measurement. Rats were then sacrificed.
(§1) Measurements: Systolic blood pressure was assessed as the mean value of 3 consecutive measurements obtained in the morning using a tail-cuff sphygmomanometer (Visitech BP2000, Visitech Systems, Inc., Apex, N.C.). All animals were preconditioned for blood pressure measurements 1 wk before each experiment. Serum uric acid was measured by uricase method. Blood glucose was measured with the ONE TOUCH system (Johnson&Johnson, Milpitas, Calif.). Rat insulin was measured by ELISA (Crystal Chem. Inc., Chicago, Ill.). Insulin sensitivity index was calculated using the formula of Matsuda and DeFronzo (10,000/square root of [fasting glucose×fasting insulin]×[mean glucose×mean insulin during OGTT]), which is highly correlated (r=0.73, p<0.0001) with rate of whole-body glucose disposal during the euglycemic insulin clamp (Matsuda M and DeFronzo R A, Insulin sensitivity indices obtained from oral glucose tolerance testing: comparison with the euglycemic insulin clamp, Diabetes Care 22: 1462-1470, 1999). Serum lipids were measured with an autoanalyzer (VETAce, Alfa Wassermann Inc, West Caldwell, N.J.) or Triglyceride-SL assay kit (Diagnostic chemicals Limited, Charlottetown, PE, Canada).
(§2) Statistical analysis. All values presented are expressed as mean±SD and analyzed by one-way analysis of variance (ANOVA) or by unpaired Student's t test. Significance was defined as p<0.05.

The subject of test [2] is fructose-fed rats. Nature of the test: Prevention of fructose-induced hyperuricemia with allopurinol. The test is classed as in vivo, rat. The method, then: […] Three groups (control, Fr, and Fr+AP; n=8 each) were designed for this prevention study. Body weight was measured every 2 weeks. Food consumption was measured for 3 days at 8 weeks.
as §1, §2

A further test deals with fructose fed rats. Kind of test: 60% dextrose vs 60% fructose diet, pair-fed, lowering uric acid with benzbromarone. Conditions: 4 weeks. It counts as in vivo, rat. The method, then: Comparison between 60% dextrose and 60% fructose on the development of metabolic syndrome and the effect of lowering uric acid with Benzbromarone: Rats were pair-fed with 60% dextrose diet or 60% fructose diet for 4 weeks, which are isocaloric. […] At 4 weeks, total food intake per animal was calculated from the food left over. Total food intake is the subtraction of the left-over food from total administered food (1425 g/rat/28days). In addition to the above two groups, a third group of fructose fed rats were administered BZ. Body weight was measured weekly. At 4 weeks, after 5 h fasting, insulin, triglyceride and uric acid were measured. All protocols were approved by the Animal Care Committee of the University of Florida.
as §1

Test [3] relates to Rat Aortic Artery (AA) segments. Nature of the test: Acetylcholine-induced vasorelaxation of rat aortic artery segments. Conditions: uric acid 0-15 mg/dl; acetylcholine 5 μM; U-46619 0.5 μM. The method, then:
Vasorelaxation of rat Aortic Artery (AA) segments: Rat AA segments (1-0.5 mm diameter×3-4 mm length) were isolated from the 2- to 3- month-old rats, AA segments were suspended in individual organ chambers (Radnoti Four-Unit Tissue Bath System) with 5 ml in Earl's solution, oxygenated with 95% O2 and 5% CO2 at 37° C. After 1 hr equilibration of resting force of 1.5 g, vascular smooth muscle cell or endothelium integrity in this AA segment was confirmed by monitoring 0.5 μM U-46619 (a thromboxane A2 mimetic, sigma)-mediated AA contraction or acetylcholine (5 μM)-mediated vasodilation, respectively. After washing several times, the segments were incubated with various concentration of uric acid (0-15 mg/dl ) in organ bath chamber for 30 min. Stable construction was induced by 0.5 μM U-46619 for 10 min prior to acetylcholine-induced vasorelaxation. The vascular tensions were continuously monitored with an isometric force transducer (Harvard Apparatus, Holliston, Mass.). To standardize the data, U-46619-induced stable increase in vascular tone was set as 100%.

For test [4], the system named is cultured bovine endothelial cells. Conditions: cited from earlier work.
Another test has as its system endothelial function. Conditions: infusion into forearm vein, immediately after infusion; cited from earlier work.
For test [5], the system named is diabetic C57BL6 and eNOS KO mice. Kind of test: Streptozotocin diabetic C57BL6 and eNOS KO mice with insulin treatment. It counts as in vivo, mouse. On the procedure:
Experiments were performed following protocol approval by the Animal Care and Use Committee of the University of Florida (IACUC). C57B1/6J mice (C57BL6) and C57BL/6JNos3tm1Unc (eNOS KO mice) (Jackson Laboratory, Bar Harbor, Me.) aged 8 weeks were rendered diabetic with intraperitoneal injections of streptozotocin (STZ) (100 mg/kg/day for 2 consecutive days) freshly dissolved in 0.1M citrate buffer (pH 4.5). Development of diabetes (defined by blood glucose greater than 250 mg/dL) was verified 1 week after the first STZ injection with ONE TOUCH system (Johnson & Johnson, Milpitas, Calif.). For blood sugar control, a single insulin pellet (Linshin Canada Inc, Ontario, Canada) was implanted subcutaneously for 5 months. Blood glucose was monitored every 2 weeks and if the fasting blood glucose was >200 mg/dl, an additional insulin pellet was inserted. Mice were housed in the animal care facility with 12-hour light/dark cycle and allowed free access to food and water. Body weight was recorded monthly. At 3 and 5 months, mice were euthanized for histological analysis. A total of 6 groups were examined with 10 mice for each group at starting points. Non-diabetic (non-DM), diabetic (DM), and diabetic mice (C57BL6 and eNOS KO) with insulin treatment (DMIns) were examined. Systolic blood pressure was assessed as the mean value of 5-10 consecutive measurements obtained in the morning using a tail-cuff sphygmomanometer (Visitech BP2000, Visitech Systems, Inc., Apex, N.C.). BUN was measured by BUN assay (Diagnostic chemicals limited, PE, Canada). Urine in bladder was obtained for urinary albumin excretion at sacrifice. Albumin-to-Creatinine ratio was measured with Albuwell M (Exocell Inc., Philadelphia, Pa.) and Liquid Creatinine Assay (Bioquant, San Diego, Calif.), respectively.
Kidneys were fixed in Fekete's fixative (mixture of ethanol, distilled water, 37% formalin and glacial acetic acid), and embedded in paraffin. 2-μm sections were stained with the periodic acid-Schiff reagent (PAS) or the periodic acid-methenamine silver (PAM) and counterstained with hematoxylin. Indirect immunoperoxidase staining was performed using antibodies to the endothelial antigen, thrombomodulin (TM) (Yuzawa Y, Brentjens J R, Brett J, Caldwell P R, Esposito C, Fukatsu A, Godman G, Stern D, Andres G: Antibody-mediated redistribution and shedding of endothelial antigens in the rabbit. J Immunol 150: 5633-5646, 1993) or CD34 (BD Pharmingen, San Jose, Calif.) (Fina L, Molgaard H V, Robertson D, Bradley N J, Monaghan P, Delia D, Sutherland D R, Baker M A, Greaves M F: Expression of the CD34 gene in vascular endothelial cells. Blood 75: 2417-2426, 1990), and to vascular smooth muscle cells with anti-smooth muscle actin (Abcam, Cambridge, Mass.). To detect endothelial cell proliferation, double immunostaining was performed with an antibody to the […], Ki67 (Abcam, Cambridge, Mass.) and thrombomodulin. Color was developed using DAB as a chromogen. In double staining, Bjoran Purple (BioCare Medical, Concord, Calif.) was used for thrombomodulin.
All quantifications were performed in a blinded fashion. Using coronal sections of the kidney, all glomeruli (100-200 of glomeruli per each animal) were examined. Glomerular mesangial expansion, mesangiolysis, and nodular lesions were evaluated. The percentage of mesangiolysis was calculated as the number of glomeruli with mesangiolysis divided by that of total glomeruli. Arteriolar morphology was assessed by indirect peroxidase immunostaining for alpha-smooth muscle actin. […] Afferent arteriolar wall thickness was measured by computer image analysis. For each arteriole, the outline of the vessel and its internal lumen (excluding the endothelium) were generated by using computer analysis to calculate the total wall area (outline-inline) in a minimum of 12 arterioles. Vessels that were cross-sectioned or not sectioned transversally, providing an asymmetrical wall, were excluded from the present study. […]

Setting [6] is: wildtype and eNOS knockout mice.

Turning to `Oc1ncnc2[nH]ncc12` [Allopurinol, allopurinol], the systolic blood pressure in the test with Male Sprague-Dawley rats (7 days, OA vs OA/AP, p=NS) turned out to be 147±11 mm Hg. Further, in the test on Male Sprague-Dawley rats (rats treated with AP alone), the “change in NOx concentration” value is on record as “did not show a significant change” and the “change in serum UA” value is “did not show a significant change”. For the same compound, the serum uric acid result in the test with fructose-fed rats [1] (AP 150 mg/L drinking water for 6 weeks from week 4 of fructose diet) is “effective at lowering uric acid”. The “insulin sensitivity (index)” value in the test with fructose-fed rats [1] (OGTT at 10 weeks) was “improved insulin sensitivity”. Further, in the test with fructose-fed rats [1] (fructose-fed rats), the “hypertriglyceridemia (serum triglycerides)” value is listed as “abolished”. The “urinary excretion of uric acid” value in the test with fructose-fed rats [1] (fructose-fed rats, 9 weeks) is “prevented the reduced excretion of uric acid”. The fasting hyperinsulinemia result in the test with fructose-fed rats [1] (fructose-fed rats, 10 weeks) was “reversed”. For the same compound, the systolic blood pressure entry with fructose-fed rats [1] (fructose-fed rats, remained higher than control) is “significantly reduced”. The postprandial hyperinsulinemia result in the test with fructose-fed rats [1] (oral glucose tolerance test at 10 weeks) is listed as “partially but significantly lower”. In the test with fructose-fed rats [1] (10 weeks), this compound displayed a body weight of 474 ± 37 g. Also, the “elevation of uric acid by fructose diet” value in the test on fructose-fed rats [2] (allopurinol given simultaneously with fructose diet, over the 6 week period) is “prevented”. Also, the fasting insulin levels entry in the test on fructose-fed rats [2] (compared to fructose-fed rats, 8 weeks) is reported as “significantly lower”. In addition, the development of hypertriglyceridemia entry with fructose-fed rats [2] (prevention study) was “completely prevented”. This compound also gave a final weight in the test on fructose-fed rats [2] (prevention study, 8 weeks) of 426 ± 26 g.
Consider `O=C(CO)[C@@H](O)[C@H](O)[C@H](O)CO` [Fr, fructose], for which the body weight in the test on fructose-fed rats [1] (10 weeks) came out at 522 ± 57 g. This compound registered a final weight in the test with fructose-fed rats [2] (prevention study, 8 weeks) of 456 ± 24 g.
Turning to `O=C(O)c1nc(=O)[nH]c(=O)[nH]1` [OA, oxonic acid], the “reduction of serum NOx in hyperuricemic rats” value in the test on Male Sprague-Dawley rats (at both 1 day and 7 days, vs control) is 40-50%.
As to `CCc1oc2ccccc2c1C(=O)c1cc(Br)c(O)c(Br)c1` [benzbromarone, Benzbromarone], in the test on fructose fed rats, the hyperinsulinemia entry was “significantly improved”, the hypertriglyceridemia result is given as “significantly improved” and the hyperuricemia entry is listed as “significantly improved”.
Take `O=c1[nH]c(=O)c2[nH]c(=O)[nH]c2[nH]1` [uric acid]: the “vasorelaxation of aortic arterial rings in response to acetylcholine” value in test [3] is listed as “dose-dependently blocked”. The NO levels result in test [4] is “potently reduce NO levels”. Moreover, the “endothelial function measured by brachial artery reactivity” value in the test with endothelial function was “does not impair endothelial function”.
For insulin, in test [5] (3 and 5 months), the “development of mesangial expansion” value is listed as “blocked”, the development of mesangiolysis entry is reported as “blocked” and the “development of the nodular lesions” value is given as “blocked”. Besides, in test [5] (both wildtype and eNOS knockout mice), the blood glucose levels entry is “significant improvements”. Moreover, the “up-regulation of VEGF mRNA expression” value in test [5] (diabetic C57BL6 and eNOS KO mice, whole kidney) is listed as “blocked”. Further, the “increase in inner lumen size of afferent arteriole” value in test [5] (diabetic eNOS KO mice) was “blocked”. For the same compound, the “increase in endothelial cell proliferation and number” value in test [5] (diabetic mice, renal cortex) is on record as “largely corrected”. For the same compound, the blood pressure entry in test [5] (eNOS knockout mice) was “significantly improved”. The survival entry in test [5] (eNOS knockout mice, 5 months) was “significantly improved”. In test [5] (setting [6]), the development of proteinuria result is “prevented”, the “development of renal dysfunction” value was “prevented” and the “development of renal hypertrophy” value is “prevented”.
